{"source": "patent US20220409617A1", "about": "“Drug Formulations and Methods of Treatment for Metabolic Disorders” (The Regents of the University of California, priority 2019, published 2022)", "key": {"AKT": {"system": "AKT", "assay": "Insulin-stimulated AKT activation, western blot", "format": "cell-based, mouse", "conditions": "3T3-L1 adipocytes; 3 h pre-treatment, C2-ceramide 50 or 100 μM, 893 5 or 10 μM; insulin 100 nM 15 min", "experimental": "3T3-L1 cells were maintained in DMEM with 10% FBS and 1% penicillin-streptomycin until induced to differentiate. 3T3-L1 pre-adipocytes were differentiated as described in (M. P. Valley, et al., Anal. Biochem. 505: 43-50, 2016, the disclosure of which is incorporated herein by reference) with slight modifications. Briefly, pre-adipocytes were grown to confluence. After 2 d, cells were induced with maintenance media containing 500 μM IBMX (15879, Sigma-Aldrich, St. Louis, Mo.), 1 μM dexamethasone (D4902, Sigma-Aldrich), 5 μg/mL bovine insulin (10516, Sigma-Aldrich), and 5 μM troglitazone (50-115-0786, ApexBio). Media was changed every 2-3 d for 7 d. On day 7 post-induction, media was changed to maintenance media+5 μg/mL bovine insulin. On day 9 post-induction, media was changed to maintenance media. Mature adipocytes were used 12-14 d post-induction for all experiments. […]\nMature adipocytes were serum starved for 16 h then treated with vehicle, ceramide (50 or 100 μM), or sphingolipid-like compound 893 (5 or 10 μM) in serum-free media supplemented with 0.2% fatty-acid free BSA for 3 h after which 100 nM insulin was added for 15 min. […] Protein content was quantified in the supernatant using the Pierce™ BCA Protein Assay Kit (Thermo-Fisher Scientific, Waltham, Mass.). […]"}, "[1]": {"system": "mouse embryonic fibroblasts", "assay": "Basal 2-deoxyglucose uptake in fibroblasts", "format": "cell-based", "conditions": "3 h, 893 5 or 10 μM", "experimental": "Glucose uptake assays were performed using the Glucose-Glo™ uptake Kit according to manufacturer's instructions (cat # J1342, Promega, Madison, Wis.). For basal glucose uptake in MEFs, cells were plated the night before in 96-well black, clear-bottom plates. Cells were treated for 3 h, washed once in PBS, then pulsed with 1 mM 2-DG in glucose-free media containing their respective drug treatments. After 10 min, the reaction was quenched and developed according to manufacturer's protocol. To assay insulin-stimulated glucose uptake, mature adipocytes in 96-well black clear-bottom plates were serum starved for 16 h. Cells were treated in serum-free media supplemented with 0.2% fatty-acid free BSA for 3 h. Cells were washed once in PBS and incubated in glucose-free media with their respective drug treatments, with or without 100 nM bovine insulin, for 15 min. A concentrated 2-DG stock was added directly to wells for 10 min (1 mM final concentration), then the reaction stopped and developed according to manufacturer's protocol."}}, "data": [{"smiles": "CCCCCCCCc1ccc([C@H]2CCN[C@@H]2CO)cc1.Cl", "note": "[compound 893]", "values": [{"measurement": "Insulin-stimulated AKT activation", "setting": "AKT", "value": "but not sphingolipid-like compound 893, interfered with insulin-stimulated AKT activation"}, {"measurement": "Constitutive glucose uptake", "setting": "[1]", "value": "constitutive glucose uptake in fibroblasts was reduced"}]}]}
